The values below come from patent US20110213026A1, “EXTRACTS WITH LIVER-X-RECEPTOR MODULATORS, COMPOUNDS AND THEIR USE ESPECIALLY IN WEIGHT CONTROL” (INTERMED DISCOVERY GMBH, priority 2007, published 2011).

As usually defined, the EC50 is the concentration giving half of the maximal effect. Read a high EC50 as a less potent agent.

Assay [1] has as its target T1, LXR ligand binding domain (GST-LXR LBD) (Homo sapiens, UniProt Q13133).
T1 sequence (Q13133 209-447): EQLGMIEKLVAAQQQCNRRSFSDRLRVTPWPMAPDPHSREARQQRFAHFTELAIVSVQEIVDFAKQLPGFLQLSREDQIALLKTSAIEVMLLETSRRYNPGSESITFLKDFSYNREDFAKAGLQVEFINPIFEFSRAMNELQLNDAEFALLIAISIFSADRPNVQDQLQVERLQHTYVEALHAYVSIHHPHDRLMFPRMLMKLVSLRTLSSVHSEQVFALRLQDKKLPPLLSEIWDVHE
In words: In vitro LXR assay (HTR-FRET, coactivator b-SRC1 recruitment). Format: biochemical. Conditions: FRET 12-point dose response. The source says:
The LXR assay is configured using time-resolved fluorescence resonance energy transfer technology (HTR-FRET) (see Albers M, Blume B, Schlueter T, Wright MB, Kober I, Kremoser C, Deuschle U, Koegl M; “A novel principle for partial agonism of liver X receptor ligands. Competitive recruitment of activators and repressors”. J. Biol. Chem. 2006 24;281(8) 4920-30; and Chin J, Adams A D, Bouffard A, Green A, Lacson R G, Smith T, Fischer P A, Menke J G, Sparrow C P, Mitnaul L J; “Miniaturization of cell-based beta-lactamase-dependent FRET assays to ultra-high throughput formats to identify agonists of human liver X receptors”. Assay Drug Dev. Technol. 2003 1(6):777-87).
In the presence of an agonist, a fusion protein of glutathione S-transferase (GST) and LXR ligand binding domain (GST-LXR LBD) associates with a biotin-labeled nuclear receptor coactivator (b-SRC1). A fluorescent signal is detected in the presence of Eu-labeled anti GST antibodies and streptavidin-labeled allophycocyanin (APC). FRET is made possible by agonist-dependent close interaction of the test proteins.
Compounds which act as agonists at the LXR ligand binding domain are detected by an increase in time-resolved fluorescence. This LXR-FRET is performed as described by Albers et al. (loc. cit.).
FRET-active compounds are assayed in a FRET 12-point dose response experiment to determine the EC50—values of the compounds mentioned in the following table 9: […]

Assay [2] can be described thus: In vivo assay in rats: 8 week feeding study, body weight and body fat. The arrangement: species or system Sprague-Dawley (SD) rats. The note with it: high fat diet, 0.1% in chow, 8 weeks, versus control groups. As to the method:
The “further enriched extract” of Example 2 (also called IMD-XT0003 above and below), containing the LXRα active compounds is prepared and tested using six week old, none-adult, male Sprague-Dawley (SD) rats (Charles Rivers, Sulzfeld, Germany). The extract is mixed with the chow (ssniff Spezialdiäten GmbH, Soest, Germany) to a final concentration of 0.1% by weight and fed for 8 weeks in two different treatment regimes: • Balanced diet (standardised to 4% fat) • High fat diet (standardised 34% fat) Controls obtain the same diet without IMD-XT0003 or other anti-obesity additives. Body weight is studied and analysed every week, body fat and mineral bone density are analysed by DEXA (scanner, see Example 3) in week 0, in week 4 and at the last day of the study in week 8. Furthermore, the white body fat weight is determined after removal of the tissue at the end of the feeding study in week 8. For the DEXA measurements the same apparatuses and methodology are used as described in example 3. As a control experiment within the high fat diet, epigallocatechin-3-gallate (EGCG, Chengdu Purification Technology Development Co. Ltd, Chengdu, China) in pure form is used as the standard for comparison of potency and differentiation as well as benchmark against competing compounds or formulations against obesity. […]

For another assay, the target named is NPFF2 receptor (Homo sapiens, UniProt Q9Y5X5). The note with it: literature report; cited from earlier work.
NPFF2 receptor, sequence (Q9Y5X5 whole entry): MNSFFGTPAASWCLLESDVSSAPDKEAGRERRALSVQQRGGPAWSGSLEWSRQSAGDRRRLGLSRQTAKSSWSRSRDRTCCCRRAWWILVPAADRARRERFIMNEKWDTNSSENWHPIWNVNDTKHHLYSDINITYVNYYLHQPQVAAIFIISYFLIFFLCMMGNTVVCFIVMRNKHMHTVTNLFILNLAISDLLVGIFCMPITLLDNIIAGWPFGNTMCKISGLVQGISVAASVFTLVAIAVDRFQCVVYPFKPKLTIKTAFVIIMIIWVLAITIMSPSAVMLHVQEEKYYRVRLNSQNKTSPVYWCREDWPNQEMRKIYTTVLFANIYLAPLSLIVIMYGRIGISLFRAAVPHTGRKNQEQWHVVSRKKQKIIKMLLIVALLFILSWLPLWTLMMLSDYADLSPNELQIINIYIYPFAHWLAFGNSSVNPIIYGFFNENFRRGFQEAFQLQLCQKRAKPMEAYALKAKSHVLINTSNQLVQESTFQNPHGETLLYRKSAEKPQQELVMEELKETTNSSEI

As for `COc1cc2c(c(OC)c1OC)-c1c(cc3c(c1OC)OCO3)CC(C)C(C)C2` (stereo not shown) [Gomisin N, 3,3,4,5-Tetramethoxy-4′,5′-methylenedioxy-2,2′-cyclolignan], the 50% effective concentration (EC50) in assay [1] was found to be 10.6 µM.

In turn, `COc1c2c(cc3c1-c1c(cc4c(c1OC)OCO4)CC(C)C(C)C3)OCO2` (stereo not shown) [Schizandrin C, 3,3′-Dimethoxy-4,5:4′,5′-bis(methylenedioxy)-2,2′-cyclolignan] registered a concentration for a half-maximal effect (EC50) in assay [1] of 5.6 µM.

In assay [1], `COc1cc2c(c(OC)c1OC)-c1c(cc(OC)c(OC)c1OC)CC(C)C(C)C2` (stereo not shown) [Desoxyschizandrol A, 3,3′,4,4′,5,5′-Hexamethoxy-2,2′-cyclolignan] came in with a 50% effective concentration (EC50) of over 10 µM.

In the case of epigallocatechin-3-gallate [EGCG], in assay [2], the body fat accumulation entry is on record as “No effects” and the body weight accumulation result is reported as “No effects”.

Take `COc1cc2c(c(OC)c1OC)-c1c(cc3c(c1OC)OCO3)[C@H](OC(=O)c1ccccc1)[C@@](C)(O)[C@@H](C)C2` [Gomisin G]: the NPFF2 receptor agonism result at NPFF2 receptor was “potent NPFF2 receptor agonists”.

Turning to `COc1cc2c(c(OC)c1OC)-c1c(cc(OC)c(OC)c1OC)[C@H](OC(=O)c1ccccc1)[C@@](C)(O)[C@@H](C)C2` [benzoylgomisin Q], the NPFF2 receptor agonism result at NPFF2 receptor is “potent NPFF2 receptor agonists”.
